# Experimental data reported in US8552035B2, “Phenanthrenone compounds, compositions and methods” (Pfizer Inc., priority 2008, dated 2013).
# System: bone formation rate
# Test: 28-day mouse side-effect model, cortical bone histomorphometry (bone formation rate)
# Format: in vivo
# Conditions: oral gavage 28 days, tibia cortical bone formation rate
# Protocol: 10-12 week old female Swiss Webster mice (Taconic, Germantown, N.Y., U.S.A.) weighing 27-29 grams are used in accordance with the guidelines of the Institutional Animal Care and Use Committee and in accordance with NIH guidelines on laboratory animal welfare. Mice are acclimated to the Pfizer animal facility for 3-7 days prior to being placed on study. Prednisolone and DAGR compounds are administered by oral gavage for a total of 28 days. Each treatment group generally contains 8-10 mice. To establish a dosing regimen for the studies, a pilot pharmacodynamic time course experiment is conducted to quantify TNFa repression after a single ED80 dose (determined from the acute LPS endotoxemia mouse model). […] DAGR compounds vary in their required frequency of doses.
# During the in-life portion of each study, mice received two IP injections of the fluorochrome calcein (C-0875; Sigma-Aldrich; 20 mg/kg; 200 μL/mouse), dissolved in 2% sodium bicarbonate, on days 1 and 26 for bone histomorphometry measurements. Fluorochrome labels incorporate into the bone mineral and allow measurement of bone formation rate. During the tissue harvest, the left tibia is excised and cleaned for cortical histomorphometry measurements. After all skin and muscle are removed, tibiae are placed in 70% ethanol (4° C.) in the dark for a minimum of 24 hours.
# Ground transverse sections are used for histomorphometric analysis of cortical bone^1. Bones are sectioned using a low speed saw (Isomet, Buehler, Lake Bluff, Ill.) equipped with a diamond wafer blade. The end of each tibia is removed proximal to tibia-fibula synostosis and a […] cross-section is cut. Using a roughened glass plate and a cork, sections are ground to […] until transparent and all labels distinguishable under a fluorescent microscope. Sections are dehydrated using the following solutions for a minimum of 2 minutes each: 1) 70% ethanol, 2) 95% ethanol, 3) 100% ethanol, 4) 50/50 ethanol/xylene, and 5) xylene (twice) (Sigma, St. Louis, 534056). Sections are mounted using Eukitt Quick Mounting Medium (Sigma, St. Louis, 03989) and cover-slipped. Using the Osteomeasure Bone Analysis Program (Decatur, Ga.), bone formation rate is calculated by tracing the 1st and 2nd fluorescent labels in addition to tracing the inner and outer perimeter of the bone. Bone formation rate is calculated by the following equation: (Interlabel Width/Label Interval)*(Labeled Perimeter/Bone Perimeter). At least 5 samples are measured from each treatment group in each study.
# ED50 and ED80 values are obtained for the various parameters using four-parameter logistic fits of data. For each experiment/dose group, outliers are detected by calculating the number of standard deviations each mouse's value was from the mean of their group and then dividing by the standard deviation of the group. The means and standard deviations used in this calculation omitted the value being examined so that, if it were an outlier, it would have no influence. If the value being examined is more than 2.5 standard deviations from the mean, it was not used in the rest of the calculations.
# Percent inhibition values are then calculated for each animal using the means of the vehicle and 10 mpk prednisone control groups. The individual mouse percent inhibition values are then fit to a four-parameter logistic model using the area under curve mean for each group. Since all four parameters are estimated and the lower plateau is not fixed at 0% and the upper plateau was not fixed at 100%, the ED50 and ED80 values are calculated by using an inverse calibration formula for a response equal to 50% or 80%. The designation “nd” means not determined.
smiles,measurement,setting,value
"Cc1ncccc1NC(=O)c1ccc2c(c1)C(=O)C[C@@H]1C[C@@](O)(c3ccccc3)[C@](C)(O)C[C@@]21Cc1ccccc1 [Example 1, (4bR,6R,7R,8aS)-4b-benzyl-6,7-dihydroxy-6-methyl-N-(2-methylpyridin-3-yl)-10-oxo-7-phenyl-4b,5,6,7,8,8a,9,10-octahydrophenanthrene-2-carboxamide]",ED50 at 28 days,"female, Swiss Webster, read-out: BFR (ED50 dose)",0.12 mg/kg
same,BFR (ED80 dose),,0.87
